# Results published in patent publication US20080233135A1, “Cobalamin taxane bioconjugates” (priority 2007, published 2008).
# What was measured:
# [1] = tested on: bFGF-stimulated formation of new blood vessel in the Matrigel plug; assay: Matrigel plug perfusion in vivo assay (anti-angiogenic efficacy); conditions: mice, Matrigel and bFGF
# Source text: The assay uses Matrigel, a gelatinous protein mixture secreted by mouse tumor cells and marketed by BD Biosciences, to duplicate tissue environments. Matrigel is liquid at room temperature, but when injected into the animal, forms a solid plug. If a growth vessel stimulant such as basic fibroblast growth factor (bFGF) is mixed with the Matrigel, the bFGF stimulates the formation of new blood vessel in the plug, which can be monitored in the animal via fluorescence techniques. In the current study, Matrigel is injected either alone or with bFGF subcutaneously into mice.
# white blood cells = conditions: mice, about 2 mg/kg dose, 28 days
# Procedure: A group of 6 mice are administered various dosages of the cobalamin-paclitaxel bioconjugate prepared in accordance with Example 1 over a 28 day period. The effects to the viable circulating endothelial cell precursors and white blood cells are measured after 28 days.
structure (smiles),measurement,setting,value
"CC(=O)O[C@H]1C(=O)[C@@]2(C)C([C@H](OC(=O)c3ccccc3)[C@]3(O)C[C@H](OC(=O)[C@H](OC(=O)C[NH+](C)CC[CH2][Co+][N]4/C5=C(/C)C6=N/C(=C\C7=NC(=C(/C)C8=NC(C(C)C4C(CC(N)=O)C5(C)CCC(=O)NCC(C)OP(=O)([O-])OC4C(CO)OC(n5cnc9cc(C)c(C)cc95)C4O)C(C)(CC(N)=O)C8CCC(N)=O)/C(C)(CC(N)=O)C7CCC(N)=O)C(C)(C)C6CCC(N)=O)[C@@H](NC(=O)c4ccccc4)c4ccccc4)C(C)=C1C3(C)C)[C@]1(OC(C)=O)COC1C[C@@H]2O.[Cl-] (some centres unmarked) [cobalamin-paclitaxel bioconjugate, Cbl—(CH2)3N(CH3)CH2COO-2′-PTX]",anti-angiogenic performance compared with DC101,[1],better performance than that of DC101
same,toxicity by white blood cell count,white blood cells,no neutropenia
